Experimental data: patent US20230014907A1, “INHIBITORS OF APOL1 AND METHODS OF USING SAME” (Vertex Pharmaceuticals Incorporated, priority 2020, published 2023)
Read-outs that look alike come from different tables or passages of the source.

Molecular target: T1, G1 APOL1 (Homo sapiens, UniProt O14791, I384M/S342G)
T1 construct: expressed in transfected cells
T1 sequence (O14791 28-398 S342G/I384M): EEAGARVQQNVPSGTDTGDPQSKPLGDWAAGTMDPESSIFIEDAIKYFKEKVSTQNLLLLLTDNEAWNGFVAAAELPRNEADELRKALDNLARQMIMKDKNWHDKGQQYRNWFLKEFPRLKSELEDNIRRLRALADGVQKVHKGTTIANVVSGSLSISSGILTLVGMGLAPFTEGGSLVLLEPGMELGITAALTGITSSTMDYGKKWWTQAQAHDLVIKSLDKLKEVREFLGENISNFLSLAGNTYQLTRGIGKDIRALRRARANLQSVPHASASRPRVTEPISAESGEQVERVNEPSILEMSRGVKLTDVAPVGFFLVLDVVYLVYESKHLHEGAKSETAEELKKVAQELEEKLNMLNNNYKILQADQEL
Assay: Acute APOL1 Thallium Assay with Inducible Stable Clones of HEK 293 Cells
Assay type: cell-based
Outline: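 HEK293 T-Rex cells with a stable tetracycline-inducible G1 APOL1 construct (clone DC3.25) were induced with tetracycline at plating, 26000 cells per well, then incubated at 37° C. They were loaded with an AM-ester thallium-sensitive dye and stimulated with Tl+. The fluorescence rise measured Tl+ influx through APOL1 pores.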

[1] = HEK 293 inducible stable clones, G1 APOL1, read-out: Thallium Assay (IC50)

IC50 [1] [µM] | SMILES | IC50 [µM]
> 1 | CNCCc1c(-c2ccc(F)cc2)[nH]c2c(F)cc(F)cc12 [Compound 428, 2-[5,7-difluoro-2-(4-fluorophenyl)-1H-indol-3-yl]-N-methyl-ethanamine] | –
– | CN(C)CCc1c(-c2ccc(F)cc2)[nH]c2c(F)cc(F)cc12 [Compound 429, 2-[5,7-difluoro-2-(4-fluorophenyl)-1H-indol-3-yl]-N,N-dimethyl-ethanamine] | > 1
> 1 | COc1ccc2[nH]c(-c3ccc(F)cc3)c(CCNC(=O)OC(C)(C)C)c2c1 [Compound 430, tert-butyl N-[2-[2-(4-fluorophenyl)-5-methoxy-1H-indol-3-yl]ethyl]carbamate] | –
> 1 | NCCc1c(-c2ccc(F)cc2)[nH]c2c(F)cc(F)cc12 [Compound 432, 2-[5,7-difluoro-2-(4-fluorophenyl)-1H-indol-3-yl]ethanamine] | –
< 0.25 | CC(CO)(CO)NC(=O)OCCc1c(-c2ccc(F)cc2)[nH]c2c(F)cc(F)cc12 [Compound 434, 2-[5,7-difluoro-2-(4-fluorophenyl)-1H-indol-3-yl]ethyl N-[2-hydroxy-1-(hydroxymethyl)-1-methyl-ethyl]carbamate] | –
< 0.25 | CC(C)(CO)NC(=O)OCCc1c(-c2ccc(F)cc2)[nH]c2c(F)cc(F)cc12 [Compound 435] | –
< 0.25 | O=C(NC1(CO)CCC1)OCCc1c(-c2ccc(F)cc2)[nH]c2c(F)cc(F)cc12 [Compound 436] | –
< 0.25 | O=C(NC(CO)CO)OCCc1c(-c2ccc(F)cc2)[nH]c2c(F)cc(F)cc12 [Compound 437] | –
< 0.25 | O=C(NC1(CO)CC1)OCCc1c(-c2ccc(F)cc2)[nH]c2c(F)cc(F)cc12 [Compound 438] | –
< 0.25 | C[C@@H](CO)NC(=O)OCCc1c(-c2ccc(F)cc2)[nH]c2c(F)cc(F)cc12 [Compound 440] | –
< 0.25 | O=C(N[C@@H](CO)C(F)F)OCCc1c(-c2ccc(F)cc2)[nH]c2c(F)cc(F)cc12 [Compound 441] | –
< 0.25 | C[C@H](O)[C@H](CO)NC(=O)OCCc1c(-c2ccc(F)cc2)[nH]c2c(F)cc(F)cc12 [Compound 442] | –
< 0.25 | O=C(NCCO)OCCc1c(-c2ccc(F)cc2)[nH]c2c(F)cc(F)cc12 [Compound 443] | –
< 0.25 | COC[C@H](C)NC(=O)OCCc1c(-c2ccc(F)cc2)[nH]c2c(F)cc(F)cc12 [Compound 444] | –
< 0.25 | C[C@H](CO)NC(=O)OCCc1c(-c2ccc(F)cc2)[nH]c2c(F)cc(F)cc12 [Compound 445] | –
< 0.25 | CC[C@@H](CO)NC(=O)OCCc1c(-c2ccc(F)cc2)[nH]c2c(F)cc(F)cc12 [Compound 446] | –
< 0.25 | NC(=O)[C@@H](CO)NC(=O)OCCc1c(-c2ccc(F)cc2)[nH]c2c(F)cc(F)cc12 [Compound 447] | –
< 0.25 | O=C(N[C@@H]1CCNC1=O)OCCc1c(-c2ccc(F)cc2)[nH]c2c(F)cc(F)cc12 [Compound 448] | –
< 0.25 | O=C(NCC(F)F)OCCc1c(-c2ccc(F)cc2)[nH]c2c(F)cc(F)cc12 [Compound 449] | –
< 0.25 | C[C@@H](O)CNC(=O)OCCc1c(-c2ccc(F)cc2)[nH]c2c(F)cc(F)cc12 [Compound 450] | –
< 0.25 | O=C(NC(CO)C1CC1)OCCc1c(-c2ccc(F)cc2)[nH]c2c(F)cc(F)cc12 (centres unmarked) [Compound 451] | –
< 0.25 | NC(=O)CNC(=O)OCCc1c(-c2ccc(F)cc2)[nH]c2c(F)cc(F)cc12 [Compound 452] | –

IC50 [1] [µM] | SMILES | IC50 [µM]
0.25 to 1 | C[C@@H](O)[C@@H](CO)NC(=O)OCCc1c(-c2ccc(F)cc2)[nH]c2c(F)cc(F)cc12 [Compound 454] | –
0.25 to 1 | CCOCCNC(=O)OCCc1c(-c2ccc(F)cc2)[nH]c2c(F)cc(F)cc12 [Compound 455] | –
0.25 to 1 | N#CC(NC(=O)OCCc1c(-c2ccc(F)cc2)[nH]c2c(F)cc(F)cc12)C(N)=O (centres unmarked) [Compound 456] | –
0.25 to 1 | CC(C)(O)CCNC(=O)OCCc1c(-c2ccc(F)cc2)[nH]c2c(F)cc(F)cc12 [Compound 458] | –
0.25 to 1 | CC(C)[C@@H](CO)NC(=O)OCCc1c(-c2ccc(F)cc2)[nH]c2c(F)cc(F)cc12 [Compound 459] | –
0.25 to 1 | C[C@H](O)CNC(=O)OCCc1c(-c2ccc(F)cc2)[nH]c2c(F)cc(F)cc12 [Compound 462] | –
0.25 to 1 | O=C(NC1CCOC1)OCCc1c(-c2ccc(F)cc2)[nH]c2c(F)cc(F)cc12 (centres unmarked) [Compound 463] | –
0.25 to 1 | O=C(N[C@H]1C[C@H](O)C1)OCCc1c(-c2ccc(F)cc2)[nH]c2c(F)cc(F)cc12 [Compound 464] | –
0.25 to 1 | O=C(NC1CC(F)(F)C1)OCCc1c(-c2ccc(F)cc2)[nH]c2c(F)cc(F)cc12 [Compound 465] | –
0.25 to 1 | O=C(NC1CC(O)C1)OCCc1c(-c2ccc(F)cc2)[nH]c2c(F)cc(F)cc12 (centres unmarked) [Compound 466] | –
0.25 to 1 | CC(C)C(CO)NC(=O)OCCc1c(-c2ccc(F)cc2)[nH]c2c(F)cc(F)cc12 (centres unmarked) [Compound 467] | –
0.25 to 1 | O=C(NCC(O)CO)OCCc1c(-c2ccc(F)cc2)[nH]c2c(F)cc(F)cc12 (centres unmarked) [Compound 468] | –
0.25 to 1 | O=C(N[C@H]1CCOC1)OCCc1c(-c2ccc(F)cc2)[nH]c2c(F)cc(F)cc12 [Compound 469] | –
0.25 to 1 | O=C(NC[C@H](O)CO)OCCc1c(-c2ccc(F)cc2)[nH]c2c(F)cc(F)cc12 [Compound 470] | –
0.25 to 1 | O=C(NC(CO)CF)OCCc1c(-c2ccc(F)cc2)[nH]c2c(F)cc(F)cc12 (centres unmarked) [Compound 471] | –
0.25 to 1 | CCC(O)CNC(=O)OCCc1c(-c2ccc(F)cc2)[nH]c2c(F)cc(F)cc12 (centres unmarked) [Compound 472] | –
0.25 to 1 | NC(=O)C1(NC(=O)OCCc2c(-c3ccc(F)cc3)[nH]c3c(F)cc(F)cc23)CC1 [Compound 473] | –
0.25 to 1 | O=C(N[C@H]1COC[C@@H]1O)OCCc1c(-c2ccc(F)cc2)[nH]c2c(F)cc(F)cc12 [Compound 474] | –
> 1 | NC(=O)[C@H](CO)NC(=O)OCCc1c(-c2ccc(F)cc2)[nH]c2c(F)cc(F)cc12 [Compound 475] | –
> 1 | O=C(NC[C@@H](O)CO)OCCc1c(-c2ccc(F)cc2)[nH]c2c(F)cc(F)cc12 [Compound 476] | –
> 1 | O=C(NCc1cnco1)OCCc1c(-c2ccc(F)cc2)[nH]c2c(F)cc(F)cc12 [Compound 477] | –
> 1 | Cn1cnc(CNC(=O)OCCc2c(-c3ccc(F)cc3)[nH]c3c(F)cc(F)cc23)c1 [Compound 478] | –

IC50 [1] [µM] | SMILES | IC50 [µM]
> 1 | COC1CC1NC(=O)OCCc1c(-c2ccc(F)cc2)[nH]c2c(F)cc(F)cc12 (centres unmarked) [Compound 479] | –
> 1 | O=C(NCc1ccco1)OCCc1c(-c2ccc(F)cc2)[nH]c2c(F)cc(F)cc12 [Compound 481] | –
> 1 | CN(C[C@H](O)CO)C(=O)OCCc1c(-c2ccc(F)cc2)[nH]c2c(F)cc(F)cc12 [Compound 482] | –
> 1 | CC(O)CCNC(=O)OCCc1c(-c2ccc(F)cc2)[nH]c2c(F)cc(F)cc12 (centres unmarked) [Compound 483] | –
> 1 | O=C(NCc1ncc[nH]1)OCCc1c(-c2ccc(F)cc2)[nH]c2c(F)cc(F)cc12 [Compound 484] | –
> 1 | Cc1ccc(CNC(=O)OCCc2c(-c3ccc(F)cc3)[nH]c3c(F)cc(F)cc23)o1 [Compound 485] | –
> 1 | O=C(NCC1(O)CCC1)OCCc1c(-c2ccc(F)cc2)[nH]c2c(F)cc(F)cc12 [Compound 486] | –
> 1 | Cc1cnc(CNC(=O)OCCc2c(-c3ccc(F)cc3)[nH]c3c(F)cc(F)cc23)o1 [Compound 487] | –
> 1 | O=C(Nc1cc(=O)[nH][nH]1)OCCc1c(-c2ccc(F)cc2)[nH]c2c(F)cc(F)cc12 [Compound 488] | –
> 1 | C[C@]1(O)C[C@@H](NC(=O)OCCc2c(-c3ccc(F)cc3)[nH]c3c(F)cc(F)cc23)C1 [Compound 489] | –
> 1 | Cn1cc(CNC(=O)OCCc2c(-c3ccc(F)cc3)[nH]c3c(F)cc(F)cc23)nn1 [Compound 490] | –
> 1 | O=C(NCC1CCOC1)OCCc1c(-c2ccc(F)cc2)[nH]c2c(F)cc(F)cc12 (centres unmarked) [Compound 491] | –
> 1 | Cc1cc(CNC(=O)OCCc2c(-c3ccc(F)cc3)[nH]c3c(F)cc(F)cc23)on1 [Compound 492] | –
> 1 | O=C(NCc1cn(CC(F)(F)F)cn1)OCCc1c(-c2ccc(F)cc2)[nH]c2c(F)cc(F)cc12 [Compound 493] | –
> 1 | CN1CC(NC(=O)OCCc2c(-c3ccc(F)cc3)[nH]c3c(F)cc(F)cc23)CC1=O (centres unmarked) [Compound 494] | –
> 1 | CO[C@H]1C[C@@H](NC(=O)OCCc2c(-c3ccc(F)cc3)[nH]c3c(F)cc(F)cc23)C1 [Compound 496] | –
> 1 | O=C(NCc1cccnc1)OCCc1c(-c2ccc(F)cc2)[nH]c2c(F)cc(F)cc12 [Compound 497] | –
> 1 | O=C(NCC1(O)CCS(=O)(=O)C1)OCCc1c(-c2ccc(F)cc2)[nH]c2c(F)cc(F)cc12 (centres unmarked) [Compound 498] | –
> 1 | CCOCCc1c(-c2ccc(F)cc2)[nH]c2c(F)cc(F)cc12 [Compound 503, 3-(2-ethoxyethyl)-5,7-difluoro-2-(4-fluorophenyl)-1H-indole] | –
> 1 | O=C(Cc1c(-c2ccc(F)cc2)[nH]c2ccccc12)NCC(O)CO (centres unmarked) [Compound 516, N-(2,3-dihydroxypropyl)-2-(2-(4-fluorophenyl)-1H-indol-3-yl)acetamide] | –
< 0.25 | O=C(/C=C/c1c(-c2ccc(F)cc2)[nH]c2c(F)cc(F)cc12)N[C@H]1CCNC1=O [Compound 519, (E)-3-[5,7-difluoro-2-(4-fluorophenyl)-1H-indol-3-yl]-N-[(3S)-2-oxopyrrolidin-3-yl]prop-2-enamide] | –
